Patent US8192962B2, “Processes for detecting toxic substances” (Daikin Industries, Ltd., priority 2001, dated 2012)

Tested on: Transport facilitation protein genes
Experiment: DNA chip mRNA expression in yeast, transport facilitation protein genes (Table 5)
Format: cell-based, Saccharomyces cerevisiae S288C
Procedure, shortened: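 First, S288C yeast grown in YPD at 25° C. are dosed in log phase with one toxicant (growth-inhibiting, not lethal) for 2 h. Next, total RNA is extracted and poly(A) mRNA isolated and reverse-transcribed with Cy3/Cy5-dUTP. Finally, whole-genome chip fluorescence is read relative to unexposed cells.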

Structure (SMILES): CCCCCCCCCCCCOS(=O)(=O)[O-].[Na+] [(18), sodium lauryl sulfate]
- The level of expressed mRNA in the presence of chemical substance/The level of expressed mRNA in the absence of chemical substance (yeast gene YGR224W): 1.3
- The level of expressed mRNA in the presence of chemical substance/The level of expressed mRNA in the absence of chemical substance (yeast gene YGR260W): 0.9
- The level of expressed mRNA in the presence of chemical substance/The level of expressed mRNA in the absence of chemical substance (yeast gene YGR281W): 3.1
- The level of expressed mRNA in the presence of chemical substance/The level of expressed mRNA in the absence of chemical substance (yeast gene YHL035C): 1.2
- The level of expressed mRNA in the presence of chemical substance/The level of expressed mRNA in the absence of chemical substance (yeast gene YHL040C): 1.0
- The level of expressed mRNA in the presence of chemical substance/The level of expressed mRNA in the absence of chemical substance (yeast gene YHL047C): 1.2
- The level of expressed mRNA in the presence of chemical substance/The level of expressed mRNA in the absence of chemical substance (yeast gene YHR026W): 1.1
- The level of expressed mRNA in the presence of chemical substance/The level of expressed mRNA in the absence of chemical substance (yeast gene YHR092C): 1.3
- The level of expressed mRNA in the presence of chemical substance/The level of expressed mRNA in the absence of chemical substance (yeast gene YHR094C): 1.4
- The level of expressed mRNA in the presence of chemical substance/The level of expressed mRNA in the absence of chemical substance (yeast gene YHR175W): 1.2
- The level of expressed mRNA in the presence of chemical substance/The level of expressed mRNA in the absence of chemical substance (yeast gene YIL006W): 0.9
- The level of expressed mRNA in the presence of chemical substance/The level of expressed mRNA in the absence of chemical substance (yeast gene YIL022W): 0.7
- The level of expressed mRNA in the presence of chemical substance/The level of expressed mRNA in the absence of chemical substance (yeast gene YIL056W): 1.2
- The level of expressed mRNA in the presence of chemical substance/The level of expressed mRNA in the absence of chemical substance (yeast gene YIL088C): 1.4
- The level of expressed mRNA in the presence of chemical substance/The level of expressed mRNA in the absence of chemical substance (yeast gene YJL034W): 1.0
- The level of expressed mRNA in the presence of chemical substance/The level of expressed mRNA in the absence of chemical substance (yeast gene YJL212C): 0.5
- The level of expressed mRNA in the presence of chemical substance/The level of expressed mRNA in the absence of chemical substance (yeast gene YJL219W): 1.2
- The level of expressed mRNA in the presence of chemical substance/The level of expressed mRNA in the absence of chemical substance (yeast gene YJR077C): 0.8
- The level of expressed mRNA in the presence of chemical substance/The level of expressed mRNA in the absence of chemical substance (yeast gene YJR106W): 1.3
- The level of expressed mRNA in the presence of chemical substance/The level of expressed mRNA in the absence of chemical substance (yeast gene YJR121W): 1.4
- The level of expressed mRNA in the presence of chemical substance/The level of expressed mRNA in the absence of chemical substance (yeast gene YKL016C): 1.7
- The level of expressed mRNA in the presence of chemical substance/The level of expressed mRNA in the absence of chemical substance (yeast gene YKL146W): 0.9
- The level of expressed mRNA in the presence of chemical substance/The level of expressed mRNA in the absence of chemical substance (yeast gene YKR039W): 1.1
- The level of expressed mRNA in the presence of chemical substance/The level of expressed mRNA in the absence of chemical substance (yeast gene YKR067W): 1.0
- The level of expressed mRNA in the presence of chemical substance/The level of expressed mRNA in the absence of chemical substance (yeast gene YLL028W): 1.2
- The level of expressed mRNA in the presence of chemical substance/The level of expressed mRNA in the absence of chemical substance (yeast gene YLR081W): 0.9
- The level of expressed mRNA in the presence of chemical substance/The level of expressed mRNA in the absence of chemical substance (yeast gene YLR295C): 1.5
- The level of expressed mRNA in the presence of chemical substance/The level of expressed mRNA in the absence of chemical substance (yeast gene YLR348C): 1.0
- The level of expressed mRNA in the presence of chemical substance/The level of expressed mRNA in the absence of chemical substance (yeast gene YLR378C): 0.7
- The level of expressed mRNA in the presence of chemical substance/The level of expressed mRNA in the absence of chemical substance (yeast gene YMR011W): 1.6
- The level of expressed mRNA in the presence of chemical substance/The level of expressed mRNA in the absence of chemical substance (yeast gene YMR162C): 1.1
- The level of expressed mRNA in the presence of chemical substance/The level of expressed mRNA in the absence of chemical substance (yeast gene YMR203W): 0.7
- The level of expressed mRNA in the presence of chemical substance/The level of expressed mRNA in the absence of chemical substance (yeast gene YNL055C): 1.7
- The level of expressed mRNA in the presence of chemical substance/The level of expressed mRNA in the absence of chemical substance (yeast gene YNL259C): 2.4
- The level of expressed mRNA in the presence of chemical substance/The level of expressed mRNA in the absence of chemical substance (yeast gene YNR072W): 1.0
- The level of expressed mRNA in the presence of chemical substance/The level of expressed mRNA in the absence of chemical substance (yeast gene YOL119C): 1.0
- The level of expressed mRNA in the presence of chemical substance/The level of expressed mRNA in the absence of chemical substance (yeast gene YOL156W): 0.9
- The level of expressed mRNA in the presence of chemical substance/The level of expressed mRNA in the absence of chemical substance (yeast gene YOL163W): 0.8
- The level of expressed mRNA in the presence of chemical substance/The level of expressed mRNA in the absence of chemical substance (yeast gene YOR035C): 2.1
- The level of expressed mRNA in the presence of chemical substance/The level of expressed mRNA in the absence of chemical substance (yeast gene YOR130C): 1.1
- The level of expressed mRNA in the presence of chemical substance/The level of expressed mRNA in the absence of chemical substance (yeast gene YOR153W): 3.1
- The level of expressed mRNA in the presence of chemical substance/The level of expressed mRNA in the absence of chemical substance (yeast gene YOR273C): 3.1
- The level of expressed mRNA in the presence of chemical substance/The level of expressed mRNA in the absence of chemical substance (yeast gene YOR316C): 1.0
- The level of expressed mRNA in the presence of chemical substance/The level of expressed mRNA in the absence of chemical substance (yeast gene YOR332W): 1.7
- The level of expressed mRNA in the presence of chemical substance/The level of expressed mRNA in the absence of chemical substance (yeast gene YOR348C): 0.9
- The level of expressed mRNA in the presence of chemical substance/The level of expressed mRNA in the absence of chemical substance (yeast gene YPL036W): 0.5
- The level of expressed mRNA in the presence of chemical substance/The level of expressed mRNA in the absence of chemical substance (yeast gene YPL134C): 1.3
- The level of expressed mRNA in the presence of chemical substance/The level of expressed mRNA in the absence of chemical substance (yeast gene YPL147W): 3.6
- The level of expressed mRNA in the presence of chemical substance/The level of expressed mRNA in the absence of chemical substance (yeast gene YPL271W): 1.3
- The level of expressed mRNA in the presence of chemical substance/The level of expressed mRNA in the absence of chemical substance (yeast gene YPR192W): 0.9
- The level of expressed mRNA in the presence of chemical substance/The level of expressed mRNA in the absence of chemical substance (yeast gene YPR194C): 0.9
